Test results: patent US8119624B2, “Fused phenyl amido heterocyclic compounds” (Pfizer Inc., priority 2006, dated 2012)
pEC50: −log10 of the molar value. Where two headings read alike, the source gives them in different places.

Molecular target: T1, Full-length glucokinase (beta cell isoform) (Homo sapiens, UniProt P35557)
T1 construct: Full-length glucokinase (beta cell isoform) was His-tagged at N-terminus; His tag (N); made in house
T1 sequence (P35557 1-465): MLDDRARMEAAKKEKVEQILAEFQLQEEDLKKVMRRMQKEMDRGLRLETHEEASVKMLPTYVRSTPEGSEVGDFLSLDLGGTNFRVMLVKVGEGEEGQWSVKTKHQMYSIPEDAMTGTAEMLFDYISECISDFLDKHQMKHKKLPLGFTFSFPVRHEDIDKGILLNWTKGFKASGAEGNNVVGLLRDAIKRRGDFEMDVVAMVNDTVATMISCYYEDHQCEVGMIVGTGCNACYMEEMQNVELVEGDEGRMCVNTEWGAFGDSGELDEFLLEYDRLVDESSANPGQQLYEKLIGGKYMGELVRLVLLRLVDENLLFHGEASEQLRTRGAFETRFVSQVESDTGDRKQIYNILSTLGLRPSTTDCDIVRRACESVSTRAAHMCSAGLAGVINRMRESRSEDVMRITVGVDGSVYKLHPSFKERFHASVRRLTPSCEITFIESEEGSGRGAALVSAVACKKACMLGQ
Experiment: Glucokinase biochemical assay (PK/LDH-coupled, NADH depletion at 340 nm): % activation, EC50, % max activation
Conditions: 5 mM glucose; for activation at 10 µM: read-out: % Activation at 10 uM; for pEC50: read-out: EC50; for Emax: read-out: % Max Activation
How it was run: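 N-terminally His-tagged full-length human beta-cell glucokinase, room temperature, 5 mM glucose, 1 mM ATP, PK/LDH-coupled with 0.7 mM NADH, 1% DMSO final. Initial velocity from the 200–900 s slope of A340 decline. % activation = (Va/Vo−1)×100, measured across compound concentrations.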

[1] = 10 uM compound, % Activation=(Va/Vo−1)×100

Compound | activation at 10 µM [1] [%] | pEC50 (GK activation) | Emax (fitted maximum activation) [%] | pEC50 (1 mM ATP, room temperature) | activation at 10 µM (compound at 10 uM, 1 mM ATP, room temperature) [%] | % Activation at 10 uM [1] [%] | % Max Activation (fitted maximum activation) [%]
Cc1noc(COc2cc(C(=O)Nc3ccn(C)n3)cc3c2CC(C)(C)O3)n1 [Example 94, 2,2-Dimethyl-4-(3-methyl-[1,2,4]oxadiazol-5-ylmethoxy)-2,3-dihydro-benzofuran-6-carboxylic acid (1-methyl-1H-pyrazol-3-yl)-amide] | 116 | 5.36 | 140 | – | – | – | –
CN(C)S(=O)(=O)c1ccc(Oc2cc(C(=O)Nc3cnn(C)n3)cc3c2CC(C)(C)O3)cc1F [Example 132, 4-(4-Dimethylsulfamoyl-3-fluoro-phenoxy)-2,2-dimethyl-2,3-dihydro-benzofuran-6-carboxylic acid (2-methyl-2H-[1,2,3]triazol-4-yl)-amide] | 288 | 6.77 | 280 | – | – | – | –
Cn1ccc(NC(=O)c2cc(Oc3ccc(C(=O)N4CC(O)C4)cc3F)c3c(c2)OC(C)(C)C3)n1 [Example 45, 4-[2-Fluoro-4-(3-hydroxy-azetidine-1-carbonyl)-phenoxy]-2,2-dimethyl-2,3-dihydro-benzofuran-6-carboxylic acid(1-methyl-1H-pyrazol-3-yl)-amide] | 150 | 6.24 | 146 | – | – | – | –
COc1cnc(NC(=O)c2cc(Oc3ccc(S(C)(=O)=O)cn3)c3cc(C)oc3c2)cn1 [Example 284, N-(5-Methoxypyrazin-2-yl)-2-methyl-4-(5-(methylsulfonyl)-pyridin-2-yloxy)-benzofuran-6-carboxamide] | 86.1 | 5.26 | 218 | – | – | – | –
Cn1ccc(NC(=O)c2cc(Oc3cc(F)ccc3C(=O)N3CCC3)c3c(c2)OC(C)(C)C3)n1 [Example 34, 4-[2-(Azetidine-1-carbonyl)-5-fluoro-phenoxy]-2,2-dimethyl-2,3-dihydro-benzofuran-6-carboxylic acid(1-methyl-1H-pyrazol-3-yl)-amide] | 75.1 | < 5.00 | – | – | – | – | –

The next lines start with the values.

activation at 10 µM [1] [%] | pEC50 (GK activation) | Emax (fitted maximum activation) [%] | pEC50 (1 mM ATP, room temperature) | activation at 10 µM (compound at 10 uM, 1 mM ATP, room temperature) [%] | % Activation at 10 uM [1] [%] | % Max Activation (fitted maximum activation) [%] | Compound
121 | 6.26 | 118 | – | – | – | – | Cc1ccc(NC(=O)c2cc(Oc3ccc(S(C)(=O)=O)cc3)c3cc(C(=O)N(C)C)oc3c2)nc1 [Example 285, N2,N2-Dimethyl-N6-(5-methylpyridin-2-yl)-4-(4-(methylsulfonyl)-phenoxy)-benzofuran-2,6-dicarboxamide]
– | – | – | < 5.00 | 67.9 | – | – | CCN1Cc2c(Oc3ccc(S(C)(=O)=O)cc3)cc(C(=O)Nc3ccn(C)n3)cc2C1=O [Example 380, 2-Ethyl-N-(1-methyl-1H-pyrazol-3-yl)-7-(4-(methylsulfonyl)-phenoxy)-3-oxoisoindoline-5-carboxamide]
47.3 | 6.48 | 46 | – | – | – | – | COCc1cc2c(Oc3ccc(S(C)(=O)=O)cc3)cc(C(=O)Nc3cc(OC)ccn3)cc2o1 [Example 314, 2-(Methoxymethyl)-N-(4-methoxypyridin-2-yl)-4-[4-(methylsulfonyl)phenoxy]-1-benzofuran-6-carboxamide]
– | 5.52 | – | – | – | 162 | 195 | CC1Cc2c(Oc3ccc(S(C)(=O)=O)cc3)cc(C(=O)Nc3ccn(C)n3)cc2O1 (single isomer, unassigned; (-)) [Example 12, (−)-4-(4-Methanesulfonyl-phenoxy)-2-methyl-2,3-dihydro-benzofuran-6-carboxylic acid(1-methyl-1H-pyrazol-3-yl)-amide]
166 | 6.85 | 168 | – | – | – | – | Cc1cc2c(Oc3ccc(S(=O)(=O)N(C)C)c(F)c3)cc(C(=O)Nc3ccn(C)n3)cc2o1 [Example 305, 4-{4-[(Dimethylamino)sulfonyl]-3-fluorophenoxy}-2-methyl-N-(1-methyl-1H-pyrazol-3-yl)-1-benzofuran-6-carboxamide]
219 | 6.06 | 245 | – | – | – | – | Cn1ccc(NC(=O)c2cc(Oc3ccc(-c4ncon4)c(Cl)c3)c3c(c2)OC(C)(C)C3)n1 [Example 189, 4-(3-Chloro-4-[1,2,4]oxadiazol-3-yl-phenoxy)-2,2-dimethyl-2,3-dihydro-benzofuran-6-carboxylic acid (1-methyl-1H-pyrazol-3-yl)-amide]
